For one data set, the system named is Raw264.7 macrophages. The experiment in a line: Phagocytosis of GFP C. albicans by macrophages, flow cytometry. The data set is classed as cell-based, mouse. Conditions: 2 h pre-treatment. The procedure:
Compromise of host immune function and other target-related toxicities preclude the use of non-species-selective Hsp90 inhibitors in the treatment of fungal infections. Host defense against invasive infection relies heavily on the ingestion and destruction of C. albicans by innate immune cells, such as macrophages. […] After an additional two hours, phagocytosis of the fluorescently labeled fungi was measured by flow cytometry. […] This Hsp90-dependent morphogenetic program has an important role in the organism’s virulence and interactions with host immune effectors such as macrophages.
The ingestion of GFP-marked C. albicans CaCi-2 (CaLC867, Table S4) by mouse macrophages was monitored using flow cytometry. Raw264.7 macrophage cultures were pre-treated with various concentrations of Hsp90 inhibitors for 2 h at 37 °C and then infected with fungus at a multiplicity of infection of ~2 for an additional 2 h. Wells were harvested by trypsinization and resultant cell suspensions incubated with Guava ViaCount reagent per manufacturer’s recommendation (Millipore Sigma, Cat #4000-0040). Red fluorescent signal was used to identify macrophages while green fluorescent signal identified the fungus. Dual positive (red and green) events with appropriate forward- and side-scatter parameters were quantitated as representative of ingestion of fungus by a macrophage. […]

Regarding `COc1ccc(CON=C2C=CC=CC3OC3CC(C)OC(=O)c3c(O)cc(O)cc3C2)cc1` (centres unmarked) [CMLD013075], the heat-shock reporter activation entry with 293T reporter cells is listed as “activation required much higher concentrations”. For the same molecule, in the data set with Raw264.7 macrophages, the “effect on engulfment of C. albicans” value is “Neither compound impaired engulfment”.

The values above are taken from article PMC6345968, “Structural basis for species-selective targeting of Hsp90 in a pathogenic fungus” (Nature Communications, 2019).
